{"source": "patent US20040115245A1", "about": "“Autoinducer compounds and their uses” (priority 2001, published 2004)", "key": {"[1]": {"system": "sheep", "assay": "Rumen dry matter disappearance of corn silage in cannulated sheep (in situ bags)", "type": "in vivo", "set-up": "dry matter disappearance, OHHL − Control, Mean / dry matter disappearance, OHHL − Control, 4 Hours / dry matter disappearance, OHHL − Control, 8 Hours / dry matter disappearance, OHHL − Control, 12 Hours / dry matter disappearance, OHHL − Control, 24 Hours: concentration or dose not given beside the values", "protocol": "This experiment examined the effect of N-(3-oxohexanoyl)-L-homoserine lactone (OHHL) (CAS#: 143537626, molecular formula : C10H15NO4, molecular weight: 213) on rumen dry matter disappearance in vivo in sheep.\nA stock solution of OHHL (0.639 gram/L) was prepared as follows. Approximately 50% of the required volume of distilled water was warmed to approximately 30-40° C. and used to dissolve the required amount of OHHL powder. The volumetric flask was made up to volume using distilled water stored at room temperature. OHHL solution was applied to pelleted sheep ration at a rate of 3 kg per tonne of feed. Control feed was treated with 3 kg of distilled water per tonne.\nInitial attempts to administer OHHL by application of an aqueous solution to the outside of pelleted feed were modified as the sheep decreased intake of treated feed after a few days. Instead, OHHL was administered as an oral drench twice daily commencing on the afternoon of Day 11 of each period.\nA restricted quantity of pelleted ration was provided at a rate of approximately 0.5 kg/day (0.25 kg in the a.m. and 0.25 kg in the p.m.). Access to hay was restricted as needed to help ensure that sheep ration was consumed.\nOn Days 12 and 13, pelleted ration (0.25 kg/animal) was issued to animals approximately 1 hour prior to introduction of bags into the rumen and again following removal of the 8-hour bag from each animal.\nOne fresh sample of corn silage was dried to constant weight and allowed to cool to room temperature. A representative sub-sample was taken for dry matter determination. The sample was ground to pass a 1 mm screen, mixed and sampled for dry matter assay. The remaining sample was stored for in situ determination of dry matter disappearance from the rumen of cannulated sheep.\nAnkom rumen sampling bags were used in the study. Each bag was approximately 5 cm×10 cm, suitable for a one-gram sample. Pore size was 53±10 microns. Dried, ground corn silage was weighed (1.00±0.01 grams) into bags and sealed. A set of four bags was prepared per animal per day and these were attached to a string to facilitate placement in and removal from the rumen. A fifth bag served as a blank for each set of four bags. The blank was not placed in the rumen but was washed, processed and dried.\nA rumen cannula was surgically placed in each of five mature (approximately 3-year old) ewes. Following recovery from surgery, four of these animals were selected for use in the study. The fifth animal served as a reserve for use in the event of post-surgical complications in a study animal.\nDry matter disappearance was measured by removing bags from the rumen at 4, 8, 12 and 24 hours and washed under cold running tap water together with a corresponding blank bag. Bags were then dried to constant weight. Measurement of dry matter disappearance was completed for each animal commencing on the morning of Day 12 and Day 13 of each period.\nA Latin Square Design was used to study the effects of two treatments:\nA, Control: 0 gram OHHL per tonne ration.\nB: Treated with the equivalent of 1.917 gram OHHL per tonne ration.\nEach period was of 14 days duration. A total of four study animals were blocked based on bodyweight (2 blocks). Animals within block were randomly assigned to Sequence 1 or 2:\nData were analysed by a multiple regression analysis that included effects of treatment, animal, period, study day and hour."}, "[2]": {"system": "cultures of rumen fluid", "assay": "In vitro digestion of grass silage by cultures of rumen fluid", "type": "cell-based, cow", "conditions": "OHHL 0, 200, 500 and 1000 nanomoles final in rumen fluid, 37° C., 10 hours, triplicate", "excerpt": "Autoinducer compounds such as acyl homoserine lactones can have significant effects on cultures of bacteria. For example, they may be used to induce expression of antibiotics and extracellular enzymes. […] is the signal molecule for antibiotic production in Chromobacterium violaceum; butanoyl homoserine lactone triggers various phenotypes in Pseudomonas aeruginosa including the production of various enzymes and lectins. OHHL is known to have different effects on different species. For example, in Erwinia stewartii it induces production of exopolysaccharides, while in Vibrio species it promotes bioluminescence. Thus, in a complex mixed culture comprising many species including ruminobacter sp., prevotella sp., ruminococcus sp., it is hard to predict the specific phenotypes that will be induced by even the introduction of just one autoinducer compound. However. the global effect on rumen mixed culture fermentation can be measured in terms of the efficiency of digestion of forage. […] A control sample treated with water and four test samples treated with using nanomolar concentrations of OHHL are examined.\nRumen fluid was collected from a healthy fistulated grass fed cow and immediately dispensed into 75 ml bottles. These bottles were kept at 37° C. […]"}, "[3]": {"system": "broiler chickens", "assay": "Growth performance and mortality of broiler chickens raised in floor pens", "type": "in vivo, broiler chickens (Cobb×Cobb)", "conditions": "for Feed Conversion, Day 21-35: grower period; for Daily Feed intake, Day 0-21 / Daily Feed intake, Day 0-35 / Daily Feed intake, Day 21-35: per bird", "protocol": "This experiment examined the effect of N-(3-oxohexanoyl)-L-homoserine lactone (OHHL) (CAS #: 143537626, molecular formula : C10H15NO4, molecular weight: 213) on the growth performance and mortality of broiler chickens.\nA stock solution of 1 mM OHHL (0.213 g/L) was prepared as follows. Approximately 50% of the required volume of distilled water was warmed to approximately 30-40° C. and used to dissolve the required amount of OHHL powder. The solution was made up to volume using distilled water stored at room temperature. OHHL solution (0.213 g/L) was applied to treated crumbled feed at a rate of 3 kg per tonne. Control feed was treated with distilled water at a rate of 3 kg per tonne. The OHHL solution was stored for less than 2 days prior to application to feed.\nThe antibiotic BMD®110 was used as a positive control in this study. The active ingredient is bacitracin methylene disalicyclate. The product contains 110 g of bacitracin activity per kg and is approved for prevention of necrotic enteritis in broiler chickens when given at a dose of 55 ppm in feed (500 g BMD®110/tonne feed).\nCoxistac® 6% premix was used as an ionophore in all study diets as an aid in the prevention of coccidiosis. The product contained 60 g salinomycin per kg and was administered at a dose of 60 ppm in feed (1 kg Coxistac® 6% premix per tonne feed).\nThe experiment lasted 35 days with the day of placement of broiler chicks considered as day zero. A total of 1,200 male day-old broiler chickens (Cobb×Cobb) were assigned to treatment on day 0. Birds were vaccinated for Marek's disease at the hatchery. Twenty-four pens, each providing 45 square feet of floor space, were assigned to treatment groups. […] Adjacent pens were separated by a solid 12-inch high plastic barrier at bird level. A welded wire fence with 1-inch square openings was located on top of all barriers. Each pen was permanently identified by number and contained 50 birds on day zero. Each pen contained four nipple-type drinkers which provided clean drinking water ad libitum. Dry feed was provided ad libitum in tube-type feeders (one per pen) of 20 kg capacity.\nThe barn was heated by five natural gas heaters which were equally spaced and positioned to warm incoming air at the north wall of the building. Air was exhausted by fans located on the south-facing wall of the building. Lighting program, barn temperature, and other management practices were typical of commercial broiler chicken producers in North America. Birds that were moribund and unable to reach food or water were culled and euthanised by carbon dioxide gas.\nBodyweight, pen number and date of death were recorded for each bird that was culled or found dead. Mortalities were submitted to the pathologist to determine the apparent cause of death.\nA randomised complete block design was used to study the main and interactive-effects of OHHL (0 and 0.639 g/tonne) and dietary antibiotic ([…]) in a 2×2 factorial arrangement. Dietary treatments were as follows:\nThere were four pens per block and six replicate blocks for a total of 24 pens.\nThe feeding program was used in the study used a starter feed type on days 0 to 20 and a grower feed type on days 21 to 35. Diet formulation was representative of commercial diets in North America.\nA starter diets using a basal mix of starter diet containing either 0 or 55 ppm BMD was manufactured, pelleted, and crumbled. Bagged starter feed was treated with either distilled water (0 g OHHL per L) or OHHL solution (0.213 g OHHL per L) using a horizontal double ribbon mixer of 100 kg capacity. Distilled water or OHHL solution (0.213 g per L) were applied to crumbled feed at a rate of 3 kg per tonne feed. Grower diets were manufactured as described above for starters.\nThe data collected consisted of:\n1. Bodyweight on days 0, 21, and 35.\n2. Amounts of each feed (starter and grower) consumed.\n3. Bodyweight and date of death for birds which were culled or died.\n4. […]"}, "[4]": {"conditions": "individual treatment mean (2×2 factorial cell)"}, "[5]": {"conditions": "individual treatment mean (2×2 factorial cell), OHHL 0.639 g/tonne feed, BMD 110 500 g/tonne"}, "[6]": {"conditions": "main-effect mean pooled over the other factor"}}, "note": "“Also recorded” adds a separate entry of the source.", "data": [{"smiles": "CCCC(=O)CC(=O)N[C@H]1CCOC1=O", "note": "[OHHL, N-(3-oxohexanoyl)-L-homoserine lactone]", "values": [{"measurement": "dry matter disappearance, 4 Hours", "setting": "[1]; corn silage in rumen bags, 4 h incubation, OHHL equivalent to 1.917 gram per tonne ration, oral drench twice daily", "result": 53.0, "unit": "%"}, {"measurement": "dry matter disappearance, 8 Hours", "setting": "[1]; corn silage in rumen bags, 8 h incubation, OHHL equivalent to 1.917 gram per tonne ration", "result": 57.8, "unit": "%"}, {"measurement": "dry matter disappearance, 12 Hours", "setting": "[1]; corn silage in rumen bags, 12 h incubation, OHHL equivalent to 1.917 gram per tonne ration", "result": 65.7, "unit": "%"}, {"measurement": "dry matter disappearance, 24 Hours", "setting": "[1]; corn silage in rumen bags, 24 h incubation, OHHL equivalent to 1.917 gram per tonne ration", "result": 74.5, "unit": "%"}, {"measurement": "dry matter disappearance, OHHL − Control, 4 Hours", "setting": "[1]; difference to control, 4 h", "result": 4.16, "unit": "%"}, {"measurement": "dry matter disappearance, OHHL − Control, 8 Hours", "setting": "[1]; difference to control, 8 h", "result": "−0.60", "unit": "%"}, {"measurement": "dry matter disappearance, OHHL − Control, 12 Hours", "setting": "[1]; difference to control, 12 h", "result": 3.36, "unit": "%"}, {"measurement": "dry matter disappearance, OHHL − Control, 24 Hours", "setting": "[1]; difference to control, 24 h", "result": 0.15, "unit": "%"}, {"measurement": "dry matter disappearance, OHHL − Control, Mean", "setting": "[1]; difference to control, mean of all times (percentage units; P=0.105)", "result": 1.77, "unit": "%"}, {"measurement": "dry matter disappearance, Mean", "setting": "[1]; mean over 4, 8, 12, 24 h", "result": 62.7, "unit": "%"}, {"measurement": "mean percentage loss of weight of grass silage", "setting": "[2]", "result": "increased the mean percentage loss of weight"}, {"measurement": "adverse effects on bird health / survival", "setting": "[3]; continuous administration in feed for 35 days, necropsy of all mortalities", "result": "no evidence of any adverse effect; also recorded: did not have an adverse effect on bird survival"}, {"measurement": "Mortality, Day 0-21", "setting": "[3]; [4]", "result": 1.0, "unit": "%"}, {"measurement": "Mortality, Day 0-35", "setting": "[3]; [4]", "result": 1.7, "unit": "%"}, {"measurement": "Mortality, Day 21-35", "setting": "[3]; [4]", "result": 0.7, "unit": "%"}, {"measurement": "Average bodyweight, Day 21", "setting": "[3]; [5]", "result": 0.796, "unit": "kg"}, {"measurement": "Average bodyweight, Day 35", "setting": "[3]; [5]", "result": 1.934, "unit": "kg"}, {"measurement": "Feed Conversion, Day 21-35", "setting": "[3]; [4]", "result": 1.812}, {"measurement": "Feed Conversion, Day 0-35", "setting": "[3]; individual treatment mean (2×2 factorial cell), overall period", "result": 1.629}, {"measurement": "Daily Feed intake, Day 0-21", "setting": "[3]; [4]", "result": 0.049}, {"measurement": "Daily Feed intake, Day 0-35", "setting": "[3]; [4]", "result": 0.088}, {"measurement": "Daily Feed intake, Day 21-35", "setting": "[3]; [4]", "result": 0.147}, {"measurement": "Feed Conversion, Day 0-21", "setting": "[3]; individual treatment mean (2×2 factorial cell), starter period", "result": 1.357}, {"measurement": "Mortality, Day 0-21", "setting": "[3]; [6]", "result": 1.3, "unit": "%"}, {"measurement": "Mortality, Day 0-35", "setting": "[3]; [6]", "result": 2.2, "unit": "%"}, {"measurement": "Mortality, Day 21-35", "setting": "[3]; [6]", "result": 0.8, "unit": "%"}, {"measurement": "Average bodyweight, Day 35", "setting": "[3]; main-effect mean pooled over the other factor, OHHL 0.639 g/tonne feed, BMD 110 500 g/tonne", "result": 1.937, "unit": "kg"}, {"measurement": "Feed Conversion, Day 21-35", "setting": "[3]; [6]", "result": 1.794}, {"measurement": "Daily Feed intake, Day 0-21", "setting": "[3]; [6]", "result": 0.048}, {"measurement": "Daily Feed intake, Day 0-35", "setting": "[3]; [6]", "result": 0.087}, {"measurement": "Daily Feed intake, Day 21-35", "setting": "[3]; [6]", "result": 0.147}]}]}
